Measurements published in patent US9107411B2, “Indolecarboxamides and benzimidazolecarboxamides as insecticides and acaricides” (BAYER INTELLECTUAL PROPERTY GMBH, priority 2011, dated 2015).
Where two headings read alike, the source gives them in different places.

What was measured:
[1] = logP (HPLC-MS); type: physicochemical
[2] = system: Phaedon cochleariae; assay: Phaedon test (PHAECO spray treatment); type: in vivo; settings: Chinese cabbage leaf discs, after 7 days; for pest or weed control at 100 g/ha: Phaedon cochleariae, foliar, 168 h, read-out: efficacy in %
Protocol: Phaedon Test ([…] Spray Treatment) Solvent: 78.0 parts by weight of acetone • • 1.5 parts by weight of dimethylformamide Emulsifier: 0.5 part by weight of alkylaryl polyglycol ether To produce an appropriate active ingredient formulation, 1 part by weight of active ingredient is mixed with the stated amounts of solvent and emulsifier, and the concentrate is diluted with emulsifier-containing water to the desired concentration. Leaf discs of Chinese cabbage (Brassica pekinensis) are sprayed with an active ingredient formulation of the desired concentration and, after drying, populated with larvae of the mustard beetle (Phaedon cochleariae). After 7 days, the efficacy in % is determined. 100% means that all of the beetle larvae have been killed; 0% means that none of the beetle larvae have been killed.

[3] = system: Spodoptera frugiperda; assay: Spodoptera frugiperda test (SPODFR spray treatment); type: in vivo; settings: maize leaf discs, after 7 days
Protocol: Spodoptera frugiperda Test (SPODFR Spray Treatment) Solvent: 78.0 parts by weight of acetone • • 1.5 parts by weight of dimethylformamide To produce an appropriate active ingredient formulation, 1 part by weight of active ingredient is mixed with the stated amounts of solvent and emulsifier, and the concentrate is diluted with emulsifier-containing water to the desired concentration. Leaf discs of maize (Zea mays) are sprayed with an active ingredient formulation of the desired concentration and, after drying, populated with caterpillars of the armyworm (Spodoptera frugiperda). After 7 days, the efficacy in % is determined 100% means that all of the caterpillars have been killed; 0% means that none of the caterpillars have been killed.

[4] = HPLC, reversed-phase column (C18), acidic range pH 2.7, acetonitrile (0.1% formic acid)/water gradient, 43° C., calibration with unbranched alkan-2-ones
[5] = HPLC, reversed-phase column (C18), acidic range pH 2.7, acetonitrile (0.1% formic acid)/water gradient, 43° C., calibration with unbranched alkan-2-ones, read-out: log p
[6] = HPLC, reversed-phase column (C18), 43° C., acidic range pH 2.7, EEC directive 79/831 Annex V.A8, two values = both regioisomers (G = N)

Cn1c(C(=O)NC(c2cccc(C(F)(F)F)c2)C(F)(F)F)nc2cc(C(=O)NC3CC3)c(Cl)cc21 (stereo not shown) [Compound 1]
log p [1, 4]: 3.4 | efficacy in % ([2]; application rate 500 g/ha): 100% | efficacy in % ([3]; application rate 500 g/ha): 100%

CCNC(=O)c1cc2cc(C(=O)NC(c3ccc(F)c(C(F)(F)F)c3)C(F)(F)F)n(CC)c2cc1Cl (stereo not shown) [Compound 17]
log p [1, 4]: 3.91 | efficacy in % ([2]; application rate 100 g/ha): 100% | efficacy in % ([3]; application rate 100 g/ha): 100%

CCn1c(C(=O)NC(c2cccc(C(F)(F)F)c2)C(F)(F)F)cc2cc(C(=O)NCC#N)c(Cl)cc21 (stereo not shown) [Compound 21]
log p [1, 4]: 3.64 | efficacy in % ([2]; application rate 100 g/ha): 100%

CCn1c(C(=O)NC(c2cccc(C(F)(F)F)c2)C(F)(F)F)cc2cc(CNC(=O)C3CC3)c(C(F)(F)F)cc21 (stereo not shown) [Compound 23]
log p [1, 4]: 4.37 | efficacy in % ([2]; application rate 100 g/ha): 100%

CCn1c(C(=O)NC(c2cccc(C(F)(F)F)c2)C(F)(F)F)cc2cc(CNC(=O)C3CC3)c(Cl)cc21 (stereo not shown) [Compound 24]
log p [1, 4]: 4.19 | efficacy in % ([2]; application rate 100 g/ha): 100% | efficacy in % ([3]; application rate 100 g/ha): 100%

CCC(=O)NCc1cc2cc(C(=O)NC(c3cccc(C(F)(F)F)c3)C(F)(F)F)n(CC)c2cc1Cl (stereo not shown) [Compound 25]
log p [1, 4]: 4.06 | efficacy in % ([2]; application rate 100 g/ha): 100% | efficacy in % ([3]; application rate 100 g/ha): 100%

CCn1c(C(=O)NC(c2cccc(C(F)(F)F)c2)C(F)(F)F)cc2cc(CNC(C)=O)c(Cl)cc21 (stereo not shown) [Compound 26, 5-(acetamidomethyl)-6-chloro-1-ethyl-N-{2,2,2-trifluoro-1-[3-(trifluoromethyl)phenyl]ethyl}-1H-indole-2-carboxamide]
chromatographic logP [1, 5]: 3.77 | chromatographic logP ([1]; HPLC-MS): 3.77 | pest or weed control at 100 g/ha ([2]; application rate 100 g/ha): 100%

CCn1c(C(=O)NC(c2cccc(C(F)(F)F)c2)C(F)(F)F)cc2cc(C(=O)NC3(C4CC4)CC3)c(Cl)cc21 (stereo not shown) [Compound 29]
log p [1, 4]: 4.45 | efficacy in % ([2]; application rate 100 g/ha): 100% | efficacy in % ([3]; application rate 100 g/ha): 83%

CCn1c(C(=O)NC(c2cccc(C(F)(F)F)c2)C(F)(F)F)cc2cc(C(=O)NC3(CC)CC3)c(Cl)cc21 (stereo not shown) [Compound 30]
log p [1, 4]: 4.45 | efficacy in % ([2]; application rate 100 g/ha): 100% | efficacy in % ([3]; application rate 100 g/ha): 83%

CCOC1(NC(=O)c2cc3cc(C(=O)NC(c4cccc(C(F)(F)F)c4)C(F)(F)F)n(CC)c3cc2Cl)CC1 (stereo not shown) [Compound 31]
log p [1, 4]: 4.19 | efficacy in % ([2]; application rate 100 g/ha): 100% | efficacy in % ([3]; application rate 100 g/ha): 100%

C#CC1(NC(=O)c2cc3cc(C(=O)NC(c4cccc(C(F)(F)F)c4)C(F)(F)F)n(CC)c3cc2Cl)CCC1 (stereo not shown) [Compound 33]
log p [1, 4]: 4.20 | efficacy in % ([2]; application rate 100 g/ha): 100%

CCOC(=O)C1(NC(=O)c2cc3cc(C(=O)NC(c4cccc(C(F)(F)F)c4)C(F)(F)F)n(CC)c3cc2Cl)CC1 (stereo not shown) [Compound 34]
log p [1, 4]: 3.99 | efficacy in % ([2]; application rate 100 g/ha): 100% | efficacy in % ([3]; application rate 100 g/ha): 83%

Cn1c(C(=O)NC(c2cccc(C(F)(F)F)c2)C(F)(F)F)cc2cc(C(=O)NC3(C#N)CC3)c(Cl)cc21 (stereo not shown) [Compound 44]
log p [1, 4]: 3.55 | efficacy in % ([2]; application rate 100 g/ha): 100% | efficacy in % ([3]; application rate 100 g/ha): 100%

Cn1c(C(=O)NC(c2cccc(Cl)c2)C(F)(F)F)cc2cc(C(=O)NC3CC3)c(Cl)cc21 (stereo not shown) [Compound 45]
log p [1, 4]: 3.33 | efficacy in % ([2]; application rate 100 g/ha): 100% | efficacy in % ([3]; application rate 100 g/ha): 100%

C#CCn1c(C(=O)NC(c2cccc(C(F)(F)F)c2)C(F)(F)F)nc2cc(C(=O)NC3CC3)c(Cl)cc21 (stereo not shown) [Compound 91]
log p [1, 4]: 3.55 | efficacy in % ([2]; application rate 100 g/ha): 100% | efficacy in % ([3]; application rate 100 g/ha): 100%

Cc1cc2c(cc1C(=O)NC1(C#N)CC1)cc(C(=O)NC(c1cccc(C(F)(F)F)c1)C(F)(F)F)n2C (stereo not shown) [Compound 196]
log p [1, 4]: 3.49 | efficacy in % ([2]; application rate 100 g/ha): 100% | efficacy in % ([3]; application rate 100 g/ha): 100%

CCn1c(C(=O)NC(c2cccc(C(F)(F)F)c2)C(F)(F)F)cc2cc(C(=O)NC(C#N)(CC)CC)c(Cl)cc21 (stereo not shown) [Compound 264]
log p [1, 4]: 4.41 | efficacy in % ([2]; application rate 100 g/ha): 100%

CCn1c(C(=O)NC(c2cccc(C(F)(F)F)c2)C(F)(F)F)cc2cc(C(=O)NC3(C)CC3C)c(Cl)cc21 (stereo not shown) [Compound 266]
log p [1, 4]: 4.41 | efficacy in % ([2]; application rate 100 g/ha): 100%

CCn1c(C(=O)NC(c2cccc(C(F)(F)F)c2)C(F)(F)F)cc2cc(C(=O)NC3(C(F)(F)F)CC3)c(Cl)cc21 (stereo not shown) [Compound 267]
log p [1, 4]: 4.30 | efficacy in % ([2]; application rate 100 g/ha): 100% | efficacy in % ([3]; application rate 100 g/ha): 100%

CCn1c(C(=O)NC(c2cccc(C(F)(F)F)c2)C(F)(F)F)cc2cc(C(=O)NC(C)CC#N)c(Cl)cc21 (stereo not shown) [Compound 269]
log p [1, 4]: 3.78 | efficacy in % ([2]; application rate 100 g/ha): 100%

CCn1c(C(=O)NC(c2cccc(C(F)(F)F)c2)C(F)(F)F)cc2cc(C(=O)NC(C#N)C(C)C)c(Cl)cc21 (stereo not shown) [Compound 270]
log p [1, 4]: 4.37 | efficacy in % ([2]; application rate 100 g/ha): 100%

CCn1c(C(=O)NC(c2cccc(C(F)(F)F)c2)C(F)(F)F)c(Cl)c2cc(C(=O)NC3(C#N)CC3)c(Cl)cc21 (stereo not shown) [Compound 271, 3,6-dichloro-N^5-(1-cyanocyclopropyl)-1-ethyl-N^2-{2,2,2-trifluoro-1-[3-(trifluoromethyl)phenyl]ethyl}-1H-indole-2,5-dicarboxamide]
chromatographic logP [1, 5]: 3.95 | chromatographic logP ([1]; HPLC-MS): 3.95 | pest or weed control at 100 g/ha ([2]; application rate 100 g/ha): 100%

CC(C)Cn1c(C(=O)NC(c2cccc(C(F)(F)F)c2)C(F)(F)F)cc2cc(C(=O)NC3(C#N)CC3)c(Cl)cc21 (stereo not shown) [Compound 299]
log p [1, 6]: 4.13 | efficacy in % ([2]; application rate 100 g/ha): 100% | efficacy in % ([3]; application rate 100 g/ha): 100%

CCn1c(C(=O)NC(c2ccc(F)c(C(F)(F)F)c2)C(F)(F)F)cc2cc(C(=O)NC(CF)CF)c(C)cc21 (stereo not shown) [Compound 306]
log p [1, 6]: 4.03 | efficacy in % ([2]; application rate 100 g/ha): 100% | efficacy in % ([3]; application rate 100 g/ha): 83%

CCn1c(C(=O)NC(c2cccc(C(F)(F)F)c2)C(F)(F)F)cc2cc(C(=O)NC(C#N)c3ccccc3)c(Cl)cc21 (stereo not shown) [Compound 318]
log p [1, 6]: 4.37 | efficacy in % ([2]; application rate 100 g/ha): 100%

CCn1c(C(=O)NC(c2ccc(F)c(F)c2)C(F)(F)F)cc2cc(C(=O)NC(C)C[S+](C)[O-])c(C)cc21 (stereo not shown) [Compound 321]
log p [1, 6]: 2.76

O=C(NC1CC1)c1cc2nc(C(=O)NC(c3cccc(C(F)(F)F)c3)C(F)(F)F)n(CC3CC3)c2cc1Cl (stereo not shown) [Compound 322]
efficacy in % ([2]; application rate 100 g/ha): 100% | efficacy in % ([3]; application rate 100 g/ha): 100%

C=Cn1c(C(=O)NC(c2cccc(C(F)(F)F)c2)C(F)(F)F)cc2cc(C(=O)NC3(C#N)CC3)ccc21 (stereo not shown) [Compound 324]
log p [1, 6]: 3.48

CCn1c(C(=O)NC(c2cccc(C(F)(F)F)c2)C(F)(F)F)cc2cc(C(=O)NC(C#N)(COC)COC)c(Cl)cc21 (stereo not shown) [Compound 325]
log p [1, 6]: 4.16 | efficacy in % ([2]; application rate 100 g/ha): 100%

COC(=O)Cn1c(C(=O)NC(c2cccc(C(F)(F)F)c2)C(F)(F)F)cc2cc(C(=O)NC3(C#N)CC3)c(Cl)cc21 (stereo not shown) [Compound 326]
log p [1, 6]: 3.36 | efficacy in % ([2]; application rate 100 g/ha): 100%

CCn1c(C(=O)NC(c2cc(Cl)c(F)c(Cl)c2)C(F)(F)F)cc2cc(C(=O)NC3CC3)c(Cl)cc21 (stereo not shown) [Compound 327]
log p [1, 6]: 4.29

CCn1c(C(=O)NC(c2ccc(F)c(F)c2)C(F)(F)F)cc2cc(C(=O)NC3CC3)c(Cl)cc21 (stereo not shown) [Compound 329]
log p [1, 6]: 3.52

CCn1c(C(=O)NC(c2cc(F)cc(C(F)(F)F)c2)C(F)(F)F)cc2cc(C(=O)NC3(C#N)CC3)c(C)cc21 (stereo not shown) [Compound 331]
log p [1, 6]: 4.02

CCn1c(C(=O)NC(c2ccc(F)c(C(F)(F)F)c2)C(F)(F)F)nc2cc(C(=O)NC3CC3)c(Br)cc21 (stereo not shown) [Compound 332]
log p [1, 6]: 3.76
